From patent publication US5994342A, “3-(substituted methyl)-4-oxa-1-azabicyclo[3.2.0]heptan-7-one derivatives useful as antitumor agents” (priority 1994, dated 1999)
Values after ≈ are worked out from the molar mass of the structure shown. Like-named read-outs stand apart in the source and are kept apart here.

Columns and labels:
P388 (S) cells = assay: In vitro P388 cell cytotoxicity (microculture tetrazolium assay), sensitive line; type: cell-based; details: Mus musculus, 72 h, read-out: Cell Toxicity P388 (S) (TD50)
Description: (§1) In Vitro L1210 and P388 Cell Cytotoxicity Assay
(§2) Cells were counted using neubauer hemocytometer and seed in 96 well plates at 100 μl of 0.5×10^4 cells per ml. […] Control wells were identical except that the test compound was absent. These were cultured for three days. Results were assayed using the microculture tetrazolium assay briefly. 50 μl of MTT formazoan working solution (1:5 v/v in culture medium) was added to each well and cultures were incubated at 37° C. for 4 hrs. Culture plates were centrifuged at low speed for 5 minutes. All but 10-20 μl of culture medium supernatant was removed by slow aspiration and […] and read at OD540 on a multiscan spectrophotometer. Inhibition value of cell growth was calculated based on optical density using the following equation; [formula]
(§3) TD50 values were calculated from linear regression ines of the log-logit plot.

L-1210 (R) cells = assay: In vitro L1210 cell cytotoxicity (microculture tetrazolium assay), resistant line; type: cell-based; details: Mus musculus, L1210, 72 h, read-out: Cell Toxicity L-1210 (R) (TD50)
Description: as §1, §2, §3

P388 (R) cells = assay: In vitro P388 cell cytotoxicity (microculture tetrazolium assay), resistant line; type: cell-based; details: Mus musculus, read-out: Cell Toxicity P388 (R) (TD50)
Description: as §1, §2, §3

L-1210 (S) cells = assay: In vitro L1210 cell cytotoxicity (microculture tetrazolium assay), sensitive line; type: cell-based; details: Mus musculus, L1210, 72 h, read-out: Cell Toxicity L-1210 (S) (TD50)
Description: as §1, §2, §3

KB cells = assay: In vitro KB cell cytotoxicity assay (crystal violet); type: cell-based; details: Homo sapiens, 72 h, 3 days culture, read-out: KB Cell Cytotoxicity TD50
In short: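 Cells seeded at 3×10^4 cells/ml in Eagle's MEM with 10% calf serum, cultured one day, then exposed to compound for three days at 37° C, 5% CO2. Glutaraldehyde-fixed cells stained with 0.05% crystal violet, eluted and read at OD540; TD50 from linear regression of log-logit plot of growth inhibition.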

Sarcoma 180 = assay: In vivo antitumor activity against Sarcoma 180; set-up: species or system male ICR mice; details: i.p., days 1, 5 and 9
In short: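 Male ICR mice (6 weeks) inoculated s.c. with 5×10^6 Sarcoma 180 cells on day 0, dosed on days 1, 5 and 9 (6–7 per group). Tumours weighed on day 12; % inhibition from mean tumour weight of treated versus control group.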

antitumor activity [1] = assay: Antitumor activity of clavam 1 in vivo
antifungal activity = details: reported by Brown and Evans; cited from earlier work
antitumor activity [2] = assay: Antitumor activity of clavam 1 in vitro; type: cell-based
Chemical stability = type: physicochemical
[3] = L-1210 resistant, 3 days culture
[4] = 72 h, P388 resistant, 3 days culture
[5] = L-1210 sensitive, 3 days culture
[6] = Mus musculus, Sarcoma-180, ip, 288 h, 12.5 mg/kg/day, tumor s.c., tumor weight day 12, read-out: % Inhibition of tumor growth

`COc1cccc2c1C(=O)c1c(O)c3c(c(O)c1C2=O)C[C@@](O)(C(=O)CO)C[C@@H]3O[C@H]1C[C@H](N)[C@H](O)[C@H](C)O1` [Adriamycin] gave an IC50 (P388 (S) cells) of 0.003 µg/mL (≈ 0.00552 µM), an IC50 (L-1210 (R) cells) of 0.36 µg/mL (≈ 0.662 µM) and an IC50 (P388 (R) cells; P388, 72 h) of 0.575 µg/mL (≈ 1.06 µM). For the same compound, the IC50 (L-1210 (S) cells) was 0.004 µg/mL (≈ 0.00736 µM).
For `CC(C)C(N)C(=O)NC(C(=O)O)C(O)C1CN2C(=O)CC2O1` (stereo not drawn) [Example G0069A], the IC50 (P388 (S) cells; P388 sensitive, 3 days culture) was 1.02 µg/mL (≈ 3.23 µM), the IC50 (L-1210 (R) cells; [3]) was 1.87 µg/mL (≈ 5.93 µM) and the IC50 (P388 (R) cells; [4]) was 0.751 µg/mL (≈ 2.38 µM). The IC50 (L-1210 (S) cells; [5]) was 2.17 µg/mL (≈ 6.88 µM).
For `CC(=O)NC[C@@H]1CN2C(=O)C[C@H]2O1` (racemic) [Example 1, (3RS,5RS)-3-(N-Acetylaminomethyl)-4-oxa-1-azabicyclo[3.2.0]heptan-7-one], the IC50 (P388 (S) cells; P388 sensitive, 3 days culture) was 0.103 µg/mL (≈ 0.559 µM), the IC50 (L-1210 (R) cells; [3]) was 0.104 µg/mL (≈ 0.565 µM) and the IC50 (KB cells) was 0.263 µg/mL (≈ 1.43 µM). For the same compound, the IC50 (P388 (R) cells; [4]) was 0.074 µg/mL (≈ 0.402 µM), the IC50 (L-1210 (S) cells; [5]) was 0.103 µg/mL (≈ 0.559 µM) and the “Mortality in 12 days” value (Sarcoma 180; 3.1 mg/kg/day) was 0/6. The “Mortality in 12 days” value (Sarcoma 180; 6.25 mg/kg/day) was 0/6, the “Mortality in 12 days” value (Sarcoma 180; 12.5 mg/kg/day) was 0/6 and the inhibition in vivo at 3.1 mg/kg (Sarcoma 180; Mus musculus, Sarcoma-180, ip, 288 h, 3.1 mg/kg/day, tumor s.c., tumor weight day 12, read-out: % Inhibition of tumor growth) was 33.9%. For the same compound, the inhibition in vivo at 6.25 mg/kg (Sarcoma 180; Mus musculus, Sarcoma-180, ip, 288 h, 6.25 mg/kg/day, tumor s.c., tumor weight day 12, read-out: % Inhibition of tumor growth) was 49.3% and the inhibition in vivo at 12.5 mg/kg (Sarcoma 180; [6]) was 71.4%.
In the case of `CC[C@]1(O)C[C@H]2CN(CCc3c([nH]c4ccccc34)[C@@](C(=O)OC)(c3cc4c(cc3OC)N(C=O)[C@H]3[C@@](O)(C(=O)OC)[C@H](OC(C)=O)[C@]5(CC)C=CCN6CC[C@]43[C@@H]65)C2)C1` [Vincristine], the IC50 (L-1210 (R) cells) is reported as 0.2 µg/mL (≈ 0.242 µM), the IC50 (P388 (R) cells; P388, 72 h) is reported as 0.279 µg/mL (≈ 0.338 µM) and the IC50 (L-1210 (S) cells) is reported as 0.002 µg/mL (≈ 0.00242 µM).
For `O=C1C[C@@H]2O[C@@H](CO)CN12` [clavam 1, (3R,5S)-3-hydroxymethyl-4-oxa-1-azabicyclo[3.2.0]heptan-7-one], the “antitumor activity in vivo” value (antitumor activity [1]) is listed as “excellent antitumor activity”, the antifungal activity (antifungal activity) is listed as “exhibit antifungal activity” and the “antitumor activity in vitro” value (antitumor activity [2]) is listed as “excellent antitumor activity”. The chemical stability (Chemical stability) was “chemically unstable”.
In the case of `CC(C)[C@H](NC(=O)[C@@H](N)CC(=O)O)C(=O)OCC1CN2C(=O)CC2O1` (stereo partly drawn) [Example 57B, (3RS,5RS)-3-N-[L-2-N-(L-2-Amino-3-carboxypropanoyl)amino-3-methylbutyryl]oxymethyl-4-oxa-1-azabicyclo[3.2.0]heptan-7-one], the IC50 (KB cells) is reported as 1.54 µg/mL (≈ 4.31 µM), the “Mortality in 12 days” value (Sarcoma 180; 12.5 mg/kg/day) is reported as 0/6 and the “Mortality in 12 days” value (Sarcoma 180; 25 mg/kg/day) is reported as 0/6. For the same compound, the “Mortality in 12 days” value (Sarcoma 180; 50 mg/kg/day) was 1/6, the inhibition in vivo at 12.5 mg/kg (Sarcoma 180; [6]) was 40.9% and the inhibition in vivo at 25 mg/kg (Sarcoma 180; Mus musculus, Sarcoma-180, ip, 288 h, 25 mg/kg/day, tumor s.c., tumor weight day 12, read-out: % Inhibition of tumor growth) was 58.1%. For the same compound, the inhibition in vivo at 50 mg/kg (Sarcoma 180; Mus musculus, Sarcoma-180, ip, 288 h, 50 mg/kg/day, tumor s.c., tumor weight day 12, read-out: % Inhibition of tumor growth) was 83.1%.
